{"source": "patent US20250032525A1", "about": "(priority 2021, published 2025)", "key": {"DU-145": {"system": "DU-145", "experiment": "In vitro cytotoxicity (PrestoBlue)", "type": "cell-based", "details": "Homo sapiens, DU-145, 72 h; read-out: Cytotoxic IC50", "from_the_text": "(§1) Experiments were repeated at least 3 times."}, "UO-31": {"system": "UO-31", "experiment": "In vitro cytotoxicity (PrestoBlue)", "type": "cell-based", "details": "Homo sapiens, UO-31, 72 h; read-out: Cytotoxic IC50", "from_the_text": "as §1"}, "HCT-116": {"system": "HCT-116", "experiment": "In vitro cytotoxicity (PrestoBlue)", "type": "cell-based", "details": "Homo sapiens, HCT-116, 72 h; read-out: Cytotoxic IC50", "from_the_text": "as §1"}, "EKVX": {"system": "EKVX", "experiment": "In vitro cytotoxicity (PrestoBlue)", "type": "cell-based", "details": "Homo sapiens, 72 h, read-out: Cytotoxic IC50", "from_the_text": "as §1"}, "Bx-PC-3": {"system": "Bx-PC-3", "experiment": "In vitro cytotoxicity (PrestoBlue)", "type": "cell-based", "details": "Homo sapiens, BXPC-3; Bx-PC-3, 72 h; read-out: Cytotoxic IC50", "from_the_text": "as §1"}, "OVCAR-5": {"system": "OVCAR-5", "experiment": "In vitro cytotoxicity (PrestoBlue)", "type": "cell-based", "details": "Homo sapiens, OVCAR-5, 72 h; read-out: Cytotoxic IC50", "from_the_text": "as §1"}, "NCI/ADR-RES": {"system": "NCI/ADR-RES", "experiment": "In vitro cytotoxicity (PrestoBlue)", "type": "cell-based", "details": "Homo sapiens, 72 h, read-out: Cytotoxic IC50", "from_the_text": "as §1"}, "[1]": {"system": "HT-29 human colon adenocarcinoma cells", "details": "reported by Mező; cited from earlier work"}, "[2]": {"system": "panel of cell lines of various tissue of origin", "experiment": "In vitro cytotoxicity, panel of cell lines (PrestoBlue)", "type": "cell-based, human", "details": "for IC50: Homo sapiens", "from_the_text": "as §1"}, "[3]": {"experiment": "Storage stability of PyDau", "type": "physicochemical", "details": "monomer form, −20° C.", "procedure": "2-pyrrolinodoxorubicin (PyDox) TFA salt was developed in 1996 (Nagy A. et al.; Proc. Natl. Acad. Sci. U.S.A. 93 (1996). 2464-2469). In the first step Nagy et al. applied 4-iodobutyraldehyde, that was prepared from 2-(3-chloropropyl)-1,3-dioxolane followed by Shiff-base formation and cyclization. The synthesis of 4-iodobutyraldehyde—which is the key step for efficient synthesis-was later improved by Studenovsky et al. (Eur. J. Pharm. Sci. 42 (2011). 156-163). […] Therefore, a new approach was investigated for the preparation of PyDau. First, the stable and storable 4-bromobutyraldehyde was applied for the synthesis. The reaction was carried out in DCM in the presence of excess DIPEA under nitrogen atmosphere at room temperature (RT) for 10 h."}, "MALME-3M": {"system": "MALME-3M", "details": "NCI-60 database, sulforhodamine B, read-out: Cytotoxic IC50; cited from earlier work"}, "A431-G2": {"system": "A431-G2", "experiment": "In vitro cytotoxicity", "type": "cell-based", "from_the_text": "as §1"}, "A431-B1": {"system": "A431-B1", "experiment": "In vitro cytotoxicity", "type": "cell-based", "from_the_text": "as §1"}, "MDA-MB-468": {"system": "MDA-MB-468", "experiment": "In vitro cytotoxicity", "type": "cell-based", "details": "Homo sapiens; MDA-MB-468 breast cancer cell line", "from_the_text": "as §1"}, "A431": {"system": "A431", "experiment": "In vitro cytotoxicity", "type": "cell-based", "details": "Homo sapiens, A-431", "from_the_text": "as §1"}, "P388/ADR": {"system": "P388/ADR", "experiment": "In vitro cytotoxicity", "type": "cell-based", "details": "Mus musculus", "from_the_text": "as §1"}, "P388": {"system": "P388", "experiment": "In vitro cytotoxicity", "type": "cell-based", "details": "Mus musculus", "from_the_text": "as §1"}, "HCT-15": {"system": "HCT-15", "details": "HCT-15, NCI-60 database, sulforhodamine B; read-out: Cytotoxic IC50; cited from earlier work"}, "NCI-H226": {"system": "NCI-H226", "details": "NCI-H226, NCI-60 database, sulforhodamine B; read-out: Cytotoxic IC50; cited from earlier work"}, "RXF 393": {"system": "RXF 393", "details": "RXF 393, NCI-60 database, sulforhodamine B; read-out: Cytotoxic IC50; cited from earlier work"}, "HT29": {"system": "HT29", "details": "HT29, NCI-60 database, sulforhodamine B; read-out: Cytotoxic IC50; cited from earlier work"}, "MDA-MB-231": {"system": "MDA-MB-231", "details": "MDA-MB-231, NCI-60 database, sulforhodamine B; read-out: Cytotoxic IC50; cited from earlier work"}, "SK-MEL-28": {"system": "SK-MEL-28", "details": "SK-MEL-28, NCI-60 database, sulforhodamine B; read-out: Cytotoxic IC50; cited from earlier work"}, "COLO 205": {"system": "COLO 205", "details": "COLO 205, NCI-60 database, sulforhodamine B; read-out: Cytotoxic IC50; cited from earlier work"}, "BT-549": {"system": "BT-549", "details": "BT-549, NCI-60 database, sulforhodamine B; read-out: Cytotoxic IC50; cited from earlier work"}, "Brcal^−/−;p53^−/− tumors": {"system": "Brcal^−/−;p53^−/− tumors", "details": "cited from earlier work"}, "HS 578T": {"system": "HS 578T", "details": "NCI-60 database, sulforhodamine B, read-out: Cytotoxic IC50; cited from earlier work"}, "MDA-MB-435": {"system": "MDA-MB-435", "details": "MDA-MB-435, NCI-60 database, sulforhodamine B; read-out: Cytotoxic IC50; cited from earlier work"}, "MCF7": {"system": "MCF7", "details": "MCF7, NCI-60 database, sulforhodamine B; read-out: Cytotoxic IC50; cited from earlier work"}}, "note": "Read-outs that look alike come from different tables or passages of the source.", "data": [{"smiles": "COc1cccc2c1C(=O)c1c(O)c3c(c(O)c1C2=O)C[C@@](O)(C(C)=O)C[C@@H]3O[C@H]1C[C@H]2[C@H](OC3CCCN32)[C@H](C)O1", "note": "(stereo partly drawn) [PyDau, 2-deamino-2-pyrrolino-daunorubicin]", "values": [{"measurement": "IC50", "setting": "DU-145", "value": 1.31, "unit": "nM"}, {"measurement": "IC50", "setting": "UO-31", "value": 1.43, "unit": "nM"}, {"measurement": "IC50", "setting": "HCT-116", "value": 3, "unit": "nM"}, {"measurement": "IC50", "setting": "EKVX", "value": 3.67, "unit": "nM"}, {"measurement": "IC50", "setting": "Bx-PC-3", "value": 4.68, "unit": "nM"}, {"measurement": "IC50", "setting": "OVCAR-5", "value": 1.93, "unit": "nM"}, {"measurement": "IC50", "setting": "NCI/ADR-RES", "value": 1.38, "unit": "nM"}, {"measurement": "IC50", "setting": "[1]", "value": 0.2, "unit": "nM"}, {"measurement": "IC50", "setting": "[2]; average IC50 within the breast group, read-out: Cytotoxic IC50, av. breast", "value": 3.23, "unit": "nM"}, {"measurement": "IC50", "setting": "[2]; average IC50 within the colorectal group, read-out: Cytotoxic IC50, av. colorectal", "value": 3.39, "unit": "nM"}, {"measurement": "IC50", "setting": "[2]; average IC50 within the leukaemia group, read-out: Cytotoxic IC50, av. leukaemia", "value": 0.57, "unit": "nM"}, {"measurement": "IC50", "setting": "[2]; average IC50 within the lung group, read-out: Cytotoxic IC50, av. lung", "value": 4.21, "unit": "nM"}, {"measurement": "IC50", "setting": "[2]; average IC50 within the melanoma group, read-out: Cytotoxic IC50, av. melanoma", "value": 4.08, "unit": "nM"}, {"measurement": "IC50", "setting": "[2]; average IC50 within the ovarian group, read-out: Cytotoxic IC50, av. ovarian", "value": 1.43, "unit": "nM"}, {"measurement": "IC50", "setting": "[2]; average IC50 within the pancreatic group, read-out: Cytotoxic IC50, av. pancreatic", "value": 3.23, "unit": "nM"}, {"measurement": "IC50", "setting": "[2]; average IC50 within the prostate group, read-out: Cytotoxic IC50, av. prostatic", "value": 1.93, "unit": "nM"}, {"measurement": "IC50", "setting": "[2]; average IC50 within the renal group, read-out: Cytotoxic IC50, av. renal", "value": 5.2, "unit": "nM"}, {"measurement": "IC50", "setting": "[2]; panel of cell lines, FIG. 1, read-out: IC50 values ranging across every cell line of the panel", "value": "0.23 to 14.3", "unit": "nM"}, {"measurement": "IC50", "setting": "[2]; panel of cell lines, typical range, read-out: IC50 values, typically", "value": "1 to 10", "unit": "nM"}, {"measurement": "Effectiveness against multidrug resistant cells", "setting": "[2]; Pgp expressing multidrug resistant HCT-15 and NCI/ADR-RES cells", "value": "effective"}, {"measurement": "Stability on storage", "setting": "[3]", "value": "stable for long time"}]}, {"smiles": "COc1cccc2c1C(=O)c1c(O)c3c(c(O)c1C2=O)C[C@@](O)(C(=O)CO)C[C@@H]3O[C@H]1C[C@H](N)[C@H](O)[C@H](C)O1", "note": "[DOX, doxorubicin]", "values": [{"measurement": "IC50", "setting": "MALME-3M", "value": 51.9, "unit": "nM"}, {"measurement": "IC50", "setting": "A431-G2", "value": 170, "unit": "nM"}, {"measurement": "IC50", "setting": "A431-B1", "value": 2450, "unit": "nM"}, {"measurement": "IC50", "setting": "MDA-MB-468", "value": 20, "unit": "nM"}, {"measurement": "IC50", "setting": "A431", "value": 65, "unit": "nM"}, {"measurement": "IC50", "setting": "P388/ADR; read-out: IC50", "value": 2040, "unit": "nM"}, {"measurement": "IC50", "setting": "P388/ADR; read-out: IC50 + TQ, heading: IC50 + TQ, presence of 1 μM tariquidar", "value": 690, "unit": "nM"}, {"measurement": "IC50", "setting": "P388", "value": 150, "unit": "nM"}, {"measurement": "IC50", "setting": "HCT-15", "value": 1200, "unit": "nM"}, {"measurement": "IC50", "setting": "NCI-H226", "value": 52.4, "unit": "nM"}, {"measurement": "IC50", "setting": "RXF 393", "value": 160, "unit": "nM"}, {"measurement": "IC50", "setting": "HT29", "value": 171, "unit": "nM"}, {"measurement": "IC50", "setting": "MDA-MB-231", "value": 383, "unit": "nM"}, {"measurement": "IC50", "setting": "SK-MEL-28", "value": 242, "unit": "nM"}, {"measurement": "IC50", "setting": "COLO 205", "value": 158, "unit": "nM"}, {"measurement": "IC50", "setting": "BT-549", "value": 212, "unit": "nM"}, {"measurement": "Outcome of treatment at MTD", "setting": "Brcal^−/−;p53^−/− tumors; DOX 5 mg/kg, PLD 8 mg/kg, FIG. 10 from Füredi et al.", "value": "all tumors developed resistance"}, {"measurement": "Maximum tolerable dose (MTD)", "setting": "Brcal^−/−;p53^−/− tumors; iv., FVB mice with Brcal^−/−;p53^−/− tumors", "value": 5, "unit": "mg/kg"}, {"measurement": "IC50", "setting": "HS 578T", "value": 188, "unit": "nM"}, {"measurement": "IC50", "setting": "MDA-MB-435", "value": 258, "unit": "nM"}, {"measurement": "IC50", "setting": "MCF7", "value": 15.6, "unit": "nM"}]}]}
